Experiments:
[1] = target: PI3 Kinase; assay: PI3K fluorescence polarization assay; assay type: biochemical; settings: 25 μM ATP, diC8-PI(4,5)P2 substrate, 1 hour at 25° C.; read-out: PI3 Kinase Median IC50
[2] = target: T1, human TOR (Homo sapiens, UniProt P42345); assay: mTOR enzyme assay (DELFIA format, purified FLAG-TOR, His6-S6K substrate); assay type: biochemical; settings: 100 μM ATP, 1.25 μM His6-S6K, 2 hours at room temperature; read-out: TOR Kinase Median IC50
T1 construct: FLAG

| IC50 [1] [nM] | IC50 [2] [nM] | melting point [°C] | SMILES |
| --- | --- | --- | --- |
| 43 | 220 | 238 to 240 | Nc1ncc(-c2nc(N3CCOCC3)c3ncn(C4CCN(Cc5ccccc5)CC4)c3n2)cn1 [Compound 31, 5-[9-(1-benzylpiperidin-4-yl)-6-morpholin-4-yl-9H-purin-2-yl]pyrimidin-2-amine] |
| 160 | 120 | 198 to 200 | Nc1ccc(-c2nc(N3CCOCC3)c3ncn(C4CCN(Cc5ccccc5)CC4)c3n2)cn1 [Compound 32, 5-[9-(1-benzylpiperidin-4-yl)-6-morpholin-4-yl-9H-purin-2-yl]pyridin-2-amine] |
| 85 | 500 | – | Oc1cncc(-c2nc(N3CCOCC3)c3ncn(C4CCN(Cc5ccc(F)nc5)CC4)c3n2)c1 [Compound 88, 5-(9-{1-[(6-fluoropyridin-3-yl)methyl]piperidin-4-yl}-6-morpholin-4-yl-9H-purin-2-yl)pyridin-3-ol] |
| 340 | 9.7 | – | CNC(=O)Nc1ccc(-c2nc(N3CCOCC3)c3ncn(C4CCN(Cc5cccnc5)CC4)c3n2)cc1 [Compound 89, 1-methyl-3-(4-(6-morpholino-9-(1-(pyridin-3-ylmethyl)piperidin-4-yl)-9H-purin-2-yl)phenyl)urea] |
| 1350 | 12 | – | CCNC(=O)Nc1ccc(-c2nc(N3CCOCC3)c3ncn(C4CCN(Cc5cccnc5)CC4)c3n2)cc1 [Compound 90, 1-ethyl-3-(4-(6-morpholino-9-(1-(pyridin-3-ylmethyl)piperidin-4-yl)-9H-purin-2-yl)phenyl)urea] |
| 43 | 73 | – | C=CC(=O)n1cnc2c(N3CCOCC3)nc(-c3cccc(O)c3)nc21 [Compound 91, 1-(2-(3-hydroxyphenyl)-6-morpholino-9H-purin-9-yl)prop-2-en-1-one] |

From US20080233127A1, “IMIDAZOLOPYRIMIDINE ANALOGS AND THEIR USE AS PI3 KINASE AND MTOR INHIBITORS” (Wyeth, priority 2007, published 2008)
